# Experimental data as given in PMC7076013 (Scientific Reports, 2020).
# Tested on: four melanoma and four colon cancer cell lines
# Assay: MTT and CV viability, whole panel of cell lines
# Assay type: cell-based
# Conditions: 48 h
# Method: Both melanoma and colon cancer are tumor types tightly connected with inflammation, while the expression of COX-2 in the selected cell lines was highly variable. Since a lot of discrepancies were found in the literature concerning the expression of this enzyme[5],[48]–[53], both COX-1 and COX-2 expression was analyzed by Western blot. […] The cells were treated with a wide range of doses of 4a–c, 5, and 6 for 48 h and cell viability was determined by MTT (3-(4,5-dimethylthiazol-2-yl)-2,5-diphenyltetrazolium bromide) and CV (crystal violet) assays. The obtained IC50 values were similar for both assays (Table 1).
# Reagents were obtained from Sigma (St. Louis, MO) unless indicated otherwise. […]
# S ystems, Minneapolis, MN USA). […] After being detached b y tr ypsinization, cells were seeded in defined number as follows: 2.5 × 10^3 cells/well in 96-well plates for viability assessment and 2 × 10^4 cells/well in 24-well plates for flow cytometry. […]
# Before treatment, non- adherent cells were removed. Compounds 4a- c, 5 and 6 were dissolved in DMSO and stored at −20 °C for a m onth. […]
# The number of viable cel ls in culture was estimated by the MTT (3-(4,5- dimethylthiazol- 2-yl ) - 2,5- diphenyltetrazolium bromide) and CV (crystal violet) tests. Cells were incubated in the presence of compounds 4a- c, 5 and 6 for 48 h, then the viability was measured as described.4 […]
substance,measurement,value
"4-[4-(methylnitrooxy)phenyl]-3-(1,2-dicarba-closo-dodecaboranyl)furan-2(5 H)-one [Compound 5]",effect on cell viability across tested cell lines,highest decrease in cell viability in all of the melanoma cell lines
